Reference: patent US10208030B2, “GPR119 agonist compounds” (Mankind Pharma Ltd., priority 2016, dated 2019)

biological target: T1, hGPR119 (Homo sapiens, UniProt Q8TDV5); assay: In vitro cyclic AMP assay (Cisbio HTRF) in CHO-hGPR119 cells; format: cell-based; conditions: 1 h, cAMP, 1 μM, 60 min, read-out: Induction (% induction at 1 μM)
T1 construct: expressed in transfected cells; host or cells: CHO cells (CHO-hGPR119)
T1 sequence (Q8TDV5 1-335): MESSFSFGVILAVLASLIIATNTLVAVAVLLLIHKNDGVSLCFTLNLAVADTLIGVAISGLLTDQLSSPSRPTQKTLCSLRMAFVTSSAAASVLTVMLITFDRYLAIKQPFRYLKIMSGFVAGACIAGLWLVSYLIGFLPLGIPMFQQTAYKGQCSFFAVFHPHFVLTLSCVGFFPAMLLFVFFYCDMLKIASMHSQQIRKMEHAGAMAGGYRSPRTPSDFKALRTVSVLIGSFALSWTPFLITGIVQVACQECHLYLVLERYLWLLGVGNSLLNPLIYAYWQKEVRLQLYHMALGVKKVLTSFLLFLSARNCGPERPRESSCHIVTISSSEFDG
Protocol: cAMP measurements were done using Cisbio dynamic 2 HTRF kit according to the manufacturer's protocol. Briefly, CHO-hGPR119 cells were plated at a cell density of 5000 cells/well/5 μl into a white small volume 384 well plate. The final concentrations of IBMX and DMSO used were 1 mM and 0.5% respectively. Cells were treated with various concentrations of the test compound for 60 min at room temperature. Cells were lysed by buffer containing Anti-cAMP antibody and d2-cAMP reagents and incubated for 1 hour at room temperature. HTRF was measured at 337 nm excitation and emission wavelengths of 665 nm and 620 nm on a microplate reader (Flurostar, BMG Labtech). Graphpad prism software was utilized for EC50 determinations.

Going from `COCCNC(=O)c1ccc(-c2nn3cc(C4CCN(C(=O)OC(C)C)CC4)nc3s2)cc1` [Compound 1035, isopropyl 4-(2-(4-((2-methoxyethyl)carbamoyl)phenyl)imidazo[2,1-b][1,3,4]thiadiazol-6-yl)piperidine-1-carboxylate] to `COCCNC(=O)c1ccc(-c2cn3nc(N4CCC(c5nc(C(C)C)no5)CC4)sc3n2)cc1` [Compound 1039, 4-(2-(4-(3-isopropyl-1,2,4-oxadiazol-5-yl)piperidin-1-yl)imidazo[2,1-b][1,3,4]thiadiazol-6-yl)-N-(2-methoxyethyl)benzamide], the activation at 1 µM falls from 21% to 11%.

First: CC(C)c1noc(C2CCN(c3nn4cc(-c5ccc(C(=O)N(C)C)cc5)nc4s3)CC2)n1 [Compound 1036, 4-(2-(4-(3-isopropyl-1,2,4-oxadiazol-5-yl)piperidin-1-yl)imidazo[2,1-b][1,3,4]thiadiazol-6-yl)-N,N-dimethylbenzamide]
Second: CC(C)c1noc(C2CCN(c3nn4cc(-c5ccc(C#N)cc5)nc4s3)CC2)n1 [Compound 1046, 4-(2-(4-(3-isopropyl-1,2,4-oxadiazol-5-yl)piperidin-1-yl)imidazo[2,1-b][1,3,4]thiadiazol-6-yl)benzonitrile]
The activation at 1 µM of the first is lower: 24% for the first, 26% for the second.

Going from `CS(=O)(=O)c1ccc(OCc2cn3nc(C4CCN(Cc5ccccc5)CC4)sc3n2)cc1` [Compound 1038, 2-(1-benzylpiperidin-4-yl)-6-((4-(methylsulfonyl)phenoxy)methyl)imidazo[2,1-b][1,3,4]thiadiazole] to `CC(C)c1noc(C2CCN(c3nn4cc(COc5ccc(S(C)(=O)=O)cc5)nc4s3)CC2)n1` [Compound 1040, 3-isopropyl-5-(1-(6-((4-(methylsulfonyl)phenoxy)methyl)imidazo[2,1-b][1,3,4]thiadiazol-2-yl)piperidin-4-yl)-1,2,4-oxadiazole], the activation at 1 µM falls from 6% to 4%.

Going from `CC(C)c1noc(N2CCC(Oc3nn4cc(COc5ccc(S(C)(=O)=O)cc5)nc4s3)CC2)n1` [Compound 1042, 3-isopropyl-5-(4-((6-((4-(methylsulfonyl)phenoxy)methyl)imidazo[2,1-b][1,3,4]thiadiazol-2-yl)oxy)piperidin-1-yl)-1,2,4-oxadiazole] to `CC(C)c1noc(N2CCC(C(C)Oc3nn4cc(-c5ccc(S(C)(=O)=O)cc5)nc4s3)CC2)n1` (stereo not shown) [Compound 1057, 3-isopropyl-5-(4-(1-((6-(4-(methylsulfonyl)phenyl)imidazo[2,1-b][1,3,4]thiadiazol-2-yl)oxy)ethyl)piperidin-1-yl)-1,2,4-oxadiazole], the activation at 1 µM rises from 2% to 82%.

First: CC(C)c1noc(C2CCN(c3nn4c(Cl)c(-c5ccc(S(C)(=O)=O)cc5)nc4s3)CC2)n1 [Compound 1044, 5-(1-(5-chloro-6-(4-(methylsulfonyl)phenyl)imidazo[2,1-b][1,3,4]thiadiazol-2-yl)piperidin-4-yl)-3-isopropyl-1,2,4-oxadiazole]
Second: CC(C)c1noc(C2CCN(c3nn4c(Cl)c(-c5ccncc5)nc4s3)CC2)n1 [Compound 1052, 5-(1-(5-chloro-6-(pyridin-4-yl)imidazo[2,1-b][1,3,4]thiadiazol-2-yl)piperidin-4-yl)-3-isopropyl-1,2,4-oxadiazole]
The activation at 1 µM of the first is higher: 71% for the first, 12% for the second.

Going from `CS(=O)(=O)c1ccc(-c2cn3nc(N4CCC(c5nc(C6CC6)no5)CC4)sc3n2)cc1` [Compound 1045, 3-cyclopropyl-5-(1-(6-(4-(methylsulfonyl)phenyl)imidazo[2,1-b][1,3,4]thiadiazol-2-yl)piperidin-4-yl)-1,2,4-oxadiazole] to `CC(C)c1noc(C2CCN(c3nn4cc(-c5ccncc5)nc4s3)CC2)n1` [Compound 1051, 3-isopropyl-5-(1-(6-(pyridin-4-yl)imidazo[2,1-b][1,3,4]thiadiazol-2-yl)piperidin-4-yl)-1,2,4-oxadiazole], the activation at 1 µM falls from 22% to 7%.

First: CC(C)c1noc(N2CCC(C(C)Oc3nn4cc(-c5ccc(C#N)cc5)nc4s3)CC2)n1 (stereo not shown) [Compound 1047, 4-(2-(1-(1-(3-isopropyl-1,2,4-oxadiazol-5-yl)piperidin-4-yl)ethoxy)imidazo[2,1-b][1,3,4]thiadiazol-6-yl)benzonitrile]
Second: CC(C)c1noc(N2CCC(COc3nn4cc(-c5ccc(C#N)cc5)nc4s3)CC2)n1 [Compound 1053, 4-(2-((1-(3-isopropyl-1,2,4-oxadiazol-5-yl)piperidin-4-yl)methoxy)imidazo[2,1-b][1,3,4]thiadiazol-6-yl)benzonitrile]
The activation at 1 µM of the first is higher: 51% for the first, 49% for the second.

First: CC(C)c1noc(N2CCC(C(C)Oc3nn4cc(-c5ccc(C(=O)N(C)C)cc5)nc4s3)CC2)n1 (stereo not shown) [Compound 1048, 4-(2-(1-(1-(3-isopropyl-1,2,4-oxadiazol-5-yl)piperidin-4-yl)ethoxy)imidazo[2,1-b][1,3,4]thiadiazol-6-yl)-N,N-dimethylbenzamide]
Second: CC(C)c1noc(N2CCC([C@@H](C)Oc3nn4cc(-c5ccc(S(C)(=O)=O)cc5)nc4s3)CC2)n1 [Compound 1060, (R)-3-isopropyl-5-(4-(1-((6-(4-(methylsulfonyl)phenyl)imidazo[2,1-b][1,3,4]thiadiazol-2-yl)oxy)ethyl)piperidin-1-yl)-1,2,4-oxadiazole]
The activation at 1 µM of the first is lower: 56% for the first, 65% for the second.

Going from `CCCc1cnc(N2CCC(C(C)Oc3nn4cc(-c5ccc(C(=O)N(C)C)cc5)nc4s3)CC2)nc1` (stereo not shown) [Compound 1049, N,N-dimethyl-4-(2-(1-(1-(5-propylpyrimidin-2-yl)piperidin-4-yl)ethoxy)imidazo[2,1-b][1,3,4]thiadiazol-6-yl)benzamide] to `CCc1cnc(N2CCC([C@@H](C)Oc3nn4cc(-c5ccc(S(C)(=O)=O)cc5)nc4s3)CC2)nc1` [Compound 1062, (R)-2-(1-(1-(5-ethylpyrimidin-2-yl)piperidin-4-yl)ethoxy)-6-(4-(methylsulfonyl)phenyl)imidazo[2,1-b][1,3,4]thiadiazole], the activation at 1 µM rises from 55% to 78%.

First: CC(C)c1noc(N2CCC(C(C)Oc3nn4cc(-c5ccncc5)nc4s3)CC2)n1 (stereo not shown) [Compound 1050, 3-isopropyl-5-(4-(1-((6-(pyridin-4-yl)imidazo[2,1-b][1,3,4]thiadiazol-2-yl)oxy)ethyl)piperidin-1-yl)-1,2,4-oxadiazole]
Second: CC(C)c1noc(N2CCC([C@@H](C)Oc3nn4cc(-c5ccnc(F)c5)nc4s3)CC2)n1 [Compound 1065, (R)-5-(4-(1-((6-(2-fluoropyridin-4-yl)imidazo[2,1-b][1,3,4]thiadiazol-2-yl)oxy)ethyl)piperidin-1-yl)-3-isopropyl-1,2,4-oxadiazole]
The activation at 1 µM of the first is higher: 68% for the first, 62% for the second.

First: CC(C)c1noc(N2CCC(COc3nn4cc(-c5ccncc5)nc4s3)CC2)n1 [Compound 1054, 3-isopropyl-5-(4-(((6-(pyridin-4-yl)imidazo[2,1-b][1,3,4]thiadiazol-2-yl)oxy)methyl)piperidin-1-yl)-1,2,4-oxadiazole]
Second: CC(C)c1noc(N2CCC([C@H](C)Oc3nn4cc(-c5cc[n+]([O-])cc5)nc4s3)CC2)n1 [Compound 1068, (S)-4-(2-(1-(1-(3-isopropyl-1,2,4-oxadiazol-5-yl)piperidin-4-yl)ethoxy)imidazo[2,1-b][1,3,4]thiadiazol-6-yl)pyridine 1-oxide]
The activation at 1 µM of the first is lower: 16% for the first, 59% for the second.

Going from `CC(C)c1noc(N2CCC(C(C)Oc3nn4cc(-c5ccc(S(C)(=O)=O)nc5)nc4s3)CC2)n1` (stereo not shown) [Compound 1055, 3-isopropyl-5-(4-(1-((6-(6-(methylsulfonyl)pyridin-3-yl)imidazo[2,1-b][1,3,4]thiadiazol-2-yl)oxy)ethyl)piperidin-1-yl)-1,2,4-oxadiazole] to `CC(C)c1noc(N2CCC([C@@H](C)Oc3nn4cc(-c5ccc(S(C)(=O)=O)nc5)nc4s3)CC2)n1` [Compound 1058, (R)-3-isopropyl-5-(4-(1-((6-(6-(methylsulfonyl)pyridin-3-yl)imidazo[2,1-b][1,3,4]thiadiazol-2-yl)oxy)ethyl)piperidin-1-yl)-1,2,4-oxadiazole], the activation at 1 µM falls from 76% to 73%.

First: CCc1cnc(N2CCC(C(C)Oc3nn4cc(-c5ccncc5)nc4s3)CC2)nc1 (stereo not shown) [Compound 1056, 2-(1-(1-(5-ethylpyrimidin-2-yl)piperidin-4-yl)ethoxy)-6-(pyridin-4-yl)imidazo[2,1-b][1,3,4]thiadiazole]
Second: CC(C)c1noc(N2CCC(C(C)Oc3nn4c(F)c(-c5ccc(S(C)(=O)=O)cc5)nc4s3)CC2)n1 (stereo not shown) [Compound 1061, 5-(4-(1-((5-fluoro-6-(4-(methylsulfonyl)phenyl)imidazo[2,1-b][1,3,4]thiadiazol-2-yl)oxy)ethyl)piperidin-1-yl)-3-isopropyl-1,2,4-oxadiazole]
The activation at 1 µM of the first is lower: 73% for the first, 79% for the second.

Compound `CC(C)c1noc(N2CCC([C@@H](C)Oc3nn4c(F)c(-c5ccc(S(C)(=O)=O)cc5)nc4s3)CC2)n1` [Compound 1066, (R)-5-(4-(1-((5-fluoro-6-(4-(methylsulfonyl)phenyl)imidazo[2,1-b][1,3,4]thiadiazol-2-yl)oxy)ethyl)piperidin-1-yl)-3-isopropyl-1,2,4-oxadiazole] has an activation at 1 µM of 72%.

same assay, conditions: cAMP, class symbols, legend not given

With `CC(C)c1noc(N2CCC([C@@H](C)Oc3nn4cc(-c5ccc(S(C)(=O)=O)nc5)nc4s3)CC2)n1` [Compound 1058, (R)-3-isopropyl-5-(4-(1-((6-(6-(methylsulfonyl)pyridin-3-yl)imidazo[2,1-b][1,3,4]thiadiazol-2-yl)oxy)ethyl)piperidin-1-yl)-1,2,4-oxadiazole] the EC50 was “A+”.
`CC(C)c1noc(N2CCC([C@@H](C)Oc3nn4cc(-c5ccc(S(C)(=O)=O)cc5)nc4s3)CC2)n1` [Compound 1060, (R)-3-isopropyl-5-(4-(1-((6-(4-(methylsulfonyl)phenyl)imidazo[2,1-b][1,3,4]thiadiazol-2-yl)oxy)ethyl)piperidin-1-yl)-1,2,4-oxadiazole] was tested, and the EC50 was “A+”.
`CCc1cnc(N2CCC([C@@H](C)Oc3nn4cc(-c5ccc(S(C)(=O)=O)cc5)nc4s3)CC2)nc1` [Compound 1062, (R)-2-(1-(1-(5-ethylpyrimidin-2-yl)piperidin-4-yl)ethoxy)-6-(4-(methylsulfonyl)phenyl)imidazo[2,1-b][1,3,4]thiadiazole] was tested, and the EC50 was “A+”.
`CC(C)c1noc(N2CCC([C@@H](C)Oc3nn4c(F)c(-c5ccc(S(C)(=O)=O)cc5)nc4s3)CC2)n1` [Compound 1066, (R)-5-(4-(1-((5-fluoro-6-(4-(methylsulfonyl)phenyl)imidazo[2,1-b][1,3,4]thiadiazol-2-yl)oxy)ethyl)piperidin-1-yl)-3-isopropyl-1,2,4-oxadiazole] was tested, and the EC50 was “A+”.
